The text below walks through data of the METLIN SMRT retention time set (Domingo-Almenara et al. 2019).

SMILES strings stand for the structures.

The nature of the data set: gradient 5% acetonitrile 3 min, to 50% in 2 min, to 85% in 15 min, held 3 min, 100 µL/min. The following applies: column: Zorbax Extend-C18 2.1 x 50 mm; eluents: water / acetonitrile, 0.1% formic acid. An outline of the steps:
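The mobile phases were water and acetonitrile, each with 0.1% formic acid, pumped at 100 μL/min through a Zorbax Extend-C18 column (2.1 × 50 mm, 1.8 μm). Pure standards were injected as mixtures of ~100 molecules and detected by a quadrupole time-of-flight mass spectrometer in positive and negative ionization mode. Retention time came from computationally picked adduct peaks, each inspected by hand.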
`O=C(Nc1nccs1)C(=O)c1c(-c2ccccc2)cc2ccccn12` yielded an RP-LC retention time of 866 s.

`COc1ccc2cc(C(=O)N3CCC(CC(=O)NCC4CCCO4)CC3)[nH]c2c1` (stereo not given) came in with an RP-LC retention time of 681 s.

The compound `CCc1sc(NC(=O)C2CCCCC2)nc1-c1ccccc1` came in with an RP-LC retention time of 1200 s.

`CCc1cc(C(=O)NCc2ccc(C)o2)nc2cc(-c3ccco3)nn12` had an RP-LC retention time of 767 s.

With `O=C(C1CCCN(c2ncnc3c2nc2n3CCCCC2)C1)N1CC=C(c2ccccc2)CC1` (stereo not given), the RP-LC retention time was 922 s.

`CCOCCCNC(=O)CN1C(=O)C2CCCCN2c2ccc(S(=O)(=O)N3CCCC3)cc21` (stereo not given): the RP-LC retention time was 819 s.

`Cc1cc(C)cc(NC(=O)Cn2ccc3sccc3c2=O)c1` showed an RP-LC retention time of 820 s.

`Cc1cc(C(=O)N2CC(F)(F)C[C@H]2c2nc(C)no2)on1` registered an RP-LC retention time of 723 s.

The compound `CN(C)c1nc2ncn3c(=O)n(CC(=O)Nc4ccc(Cl)cc4F)nc3c2s1` showed an RP-LC retention time of 748 s.

As for `O=C(c1cc(C2CC2)n(C2CCS(=O)(=O)C2)n1)N1CCc2ccccc21` (stereo not given), the RP-LC retention time was 768 s.

The compound `CCOc1ccc(NC(=O)C2CCN(c3c(C(=O)N(CC)CC)cnc4snc(C)c34)CC2)cc1` displayed an RP-LC retention time of 882 s.

For `COc1ccc(-c2c(C)noc2NC(C)=O)cc1S(=O)(=O)Nc1ccc(C)cc1Br`, the RP-LC retention time is 832 s.

`O=C1NC2=C(C(=O)CCC2)C(c2cccc([N+](=O)[O-])c2)N1` (stereo not given): the RP-LC retention time was 606 s.

As to `Cc1cccc(Sc2nccnc2SCC(=O)N2CCN(c3ccccn3)CC2)c1`, the RP-LC retention time worked out at 721 s.

In turn, `CCCc1nc(-c2c(C)cc(C)nc2NC(=O)COc2ccccc2)no1` came in with an RP-LC retention time of 946 s.

Compound `CC1CCN(C(=O)c2cn(-c3cc(N4CCSCC4)ncn3)cn2)CC1` gave an RP-LC retention time of 858 s.

`COc1ccc(N(Cc2nnc3n2CCCCC3)C(=O)Nc2ccccc2OC)cc1` registered an RP-LC retention time of 772 s.

`CC1CCCN(c2nc(=O)n(CC(=O)Nc3ccc4c(c3)OCO4)c3ccccc23)C1` (stereo not given): the RP-LC retention time stood at 796 s.

`O=C(NC1CCCCC1)C1CCN(S(=O)(=O)c2cc(-c3noc(C4CCC4)n3)cs2)CC1` showed an RP-LC retention time of 1070 s.

`CC1(C)CC[C@]2(C(=O)n3ccnc3)CC[C@]3(C)[C@H](C(=O)C=C4[C@@]5(C)C=C(C#N)C(=O)C(C)(C)[C@@H]5CC[C@]43C)[C@@H]2C1` yielded an RP-LC retention time of 1260 s.

Compound `N#CCSc1nnc2n(CCC(=O)NC3CCCCC3)c(=O)c3ccccc3n12` registered an RP-LC retention time of 687 s.

`O=C(Nc1nnc(C2CC(=O)N(c3ccc(F)cc3)C2)o1)c1ccccc1F` (stereo not given) showed an RP-LC retention time of 701 s.

Compound `O=C(NCC1(c2ccccc2)CCOCC1)c1cccc(C(F)(F)F)c1` displayed an RP-LC retention time of 852 s.

Consider `CCN(C(=O)C1CCN(S(=O)(=O)c2ccc3c(c2)NC(=O)CO3)CC1)c1ccc(OC)cc1`, for which the RP-LC retention time worked out at 788 s.

Turning to `COc1ccc(NC(=O)C2CN(S(=O)(=O)c3cccnc3)CC23CCCCC3)cc1F` (stereo not given), the RP-LC retention time turned out to be 900 s.

`O=C(c1ccc2cc[nH]c2c1)N1C[C@@H]2C[C@H]1C[C@@H]2NS(=O)(=O)c1cccs1` returned an RP-LC retention time of 754 s.

Consider `O=C(NCc1cccs1)C(=O)c1cccn1Cc1ccc(F)cc1`, for which the RP-LC retention time is 1010 s.

For the compound `O=C(NCc1csc(-c2cccs2)n1)C1CCN(C(=O)c2ccc(F)c(F)c2)CC1`, the RP-LC retention time came out at 770 s.

Compound `COc1ccc2c(c1)C=C(C(=O)N1CCN(Cc3ccc(OC)c(OC)c3OC)CC1)CO2` registered an RP-LC retention time of 682 s.

On to `CC1Cc2ccccc2N1C(=O)Cn1c(=O)n(C(C)C)c2ccc(S(=O)(=O)N3CCCC3)cc21` (stereo not given), for which the RP-LC retention time came out at 963 s.

On to `CCOC(=O)C1=C(CN2CCC(c3ccccc3)C2)NC(=O)NC1c1cccc(OC)c1OC` (stereo not given), for which the RP-LC retention time turned out to be 687 s.

On to `CN(C)c1cc(C(=O)NC2CC2)c2cccc(Cl)c2n1`, for which the RP-LC retention time was found to be 746 s.

In the case of `O=C(c1ccoc1)N1CCC(F)(C(=O)NC2CC2)CC1`, the RP-LC retention time worked out at 569 s.

Consider `COc1ccc(C(CC(=O)N2CCCCC2)N2Cc3ccccc3C2=O)cc1OC` (stereo not given), for which the RP-LC retention time was 771 s.

The compound `COC[C@@H]1CN(S(=O)(=O)c2ccccc2C)C[C@H]1c1ccccn1` displayed an RP-LC retention time of 637 s.

In turn, `Cc1ccc(NC(=O)N2CCCC(Cn3c(C4CC4)nc4cccnc43)C2)cc1C` (stereo not given) had an RP-LC retention time of 694 s.

`CC(=O)Nc1ccc(SCCCC(=O)Nc2nc3ccccc3s2)nn1`: the RP-LC retention time stood at 691 s.

The compound `CC1(C)CC(=O)c2cn(-c3ccc(Cl)cc3)c(=O)c(C(=O)O)c2C1` displayed an RP-LC retention time of 907 s.

As for `Cc1cccc(S(=O)(=O)N2CCc3c(c(-c4nnc(-c5ccc(F)cc5)o4)nn3C)C2)c1`, the RP-LC retention time is 955 s.

For the compound `COC(=O)c1ccccc1NC1=NS(=O)(=O)C(c2ccc(F)cc2)=C1C`, the RP-LC retention time came out at 1050 s.

On to `NS(=O)(=O)c1cccnc1Nc1ccc(F)c(Cl)c1`, for which the RP-LC retention time worked out at 879 s.

For `CC(=O)N1CCc2cc(C)c(S(=O)(=O)NC(C)C)cc21`, the RP-LC retention time is 740 s.

Compound `CCOc1ccc(N2C=C(C#N)S(=O)(=O)c3ccc(Cl)cc32)cc1` returned an RP-LC retention time of 1040 s.

`O=C(COc1ccccc1)N1CCCCC1CCN1CCCCC1` (stereo not given) showed an RP-LC retention time of 635 s.

In the case of `Cc1ccc2c(c1)N(S(C)(=O)=O)CCC(C(=O)Nc1cc(Cl)ccc1C)O2` (stereo not given), the RP-LC retention time amounted to 919 s.

The compound `Cc1nc(C)c(C(=O)N2CCCC(c3nnc(-c4ccc5c(c4)OCO5)o3)C2)s1` (stereo not given) had an RP-LC retention time of 669 s.

As for `O=C(c1ccc(-n2cnnn2)cc1)N1CCCc2ccccc21`, the RP-LC retention time was 734 s.

Consider `O=C(O)CCn1nnc2ccccc2c1=O`, for which the RP-LC retention time is 606 s.

Compound `COc1ccc(NC(=O)Cn2nc3n(c2=O)CCCC3)cc1OC` displayed an RP-LC retention time of 595 s.

`Cc1nnc2ccc(S(=O)(=O)Nc3cccc(Cl)c3)cn12` displayed an RP-LC retention time of 724 s.

The compound `COc1ccc(C2CC(=O)N(c3ccc(OC)c(OC)c3)C(=O)C2)cc1OC` yielded an RP-LC retention time of 910 s.

`Cn1c(=O)c(C(=O)NC2CC2)nc2cccnc21` displayed an RP-LC retention time of 613 s.

As for `CC1CCCN(c2ccc(-c3noc(CN4CCC5(CC4)OCCO5)n3)cn2)C1` (stereo not given), the RP-LC retention time came to 680 s.

`Cn1c(C(=O)N2CCCC(C(=O)N3CCN(c4ccccn4)CC3)C2)cc2sccc21` (stereo not given) came in with an RP-LC retention time of 614 s.

Consider `Cc1ccn2c(NC(=O)c3ccc4ccccc4c3)c(-c3ccccc3)nc2c1`, for which the RP-LC retention time is 747 s.

In turn, `COc1ccc(OC)c(CNC(=O)C2CCN(Cc3cn(C)c4ccc(Cl)cc34)CC2)c1` registered an RP-LC retention time of 717 s.

Compound `CC1CCN(C(=O)c2ccc(-c3ccsc3)nc2)CC1` showed an RP-LC retention time of 876 s.

Take `COc1ccc(-c2ncc(NC(=O)C3CCC3)cn2)cc1`: the RP-LC retention time amounted to 848 s.

`O=C(NCc1ccccc1)c1cccn1Cc1noc(-c2ccccc2)n1` came in with an RP-LC retention time of 981 s.

The compound `Cc1cc2n(n1)CCC(=O)N2CCCC(=O)NCCCc1ccccc1` yielded an RP-LC retention time of 691 s.

On to `Cc1cc2nn(CC(=O)N3CCCC3)c(=O)n2c(Nc2ccc(F)c(C)c2)n1`, for which the RP-LC retention time was 643 s.

Compound `COc1ccc(NC(=O)Cn2c(=O)cc(-c3nc(C(C)C)no3)c3ccccc32)cc1` showed an RP-LC retention time of 938 s.

Consider `CC(C)c1nc2c(NC(=O)C3CC3)cccn2n1`, for which the RP-LC retention time is 733 s.

`O=S(=O)(c1ccc2nc(N3CCN(c4ccc(F)cc4)CC3)ccc2c1)N1CCOCC1` yielded an RP-LC retention time of 890 s.

For the compound `COc1ccc(CNC(=O)NC2CCN(c3ccc(F)cc3)C2=O)cc1` (stereo not given), the RP-LC retention time stood at 697 s.

Regarding `COc1ccc(-c2nc(CNC(=O)c3coc(-c4ccccc4)n3)no2)cc1`, the RP-LC retention time was 950 s.

Consider `Fc1cccc(CNc2cc(-n3cccn3)ncn2)c1`, for which the RP-LC retention time is 854 s.

As to `COc1ccccc1C1=NN(C(=O)c2ccccc2C)C(c2ccco2)C1` (stereo not given), the RP-LC retention time came out at 976 s.

`COc1cccc(CNC(=O)N2CCCC(Cn3cnc4cccnc43)C2)c1` (stereo not given) yielded an RP-LC retention time of 654 s.

`CCOC(=O)c1cnc2c(-c3ccc(F)cc3)c(C)nn2c1N` registered an RP-LC retention time of 1020 s.

Regarding `COc1cccc(CNC(=O)C2(C)CCCN(C(=O)Nc3ccc(C)cc3)C2)c1` (stereo not given), the RP-LC retention time stood at 898 s.

`COc1ccc(-n2c(=O)n(C)c(=O)c3cc(C(=O)NCc4ccco4)cnc32)cc1` displayed an RP-LC retention time of 764 s.

`Cc1nc(C)c(C(=O)Nc2nc(-c3ccc4c(c3)CCCC4)cs2)s1` came in with an RP-LC retention time of 1170 s.

`COc1cc(NC(=O)Cc2csc3nc(-c4ccc(C)c(C)c4)cn23)cc(OC)c1` yielded an RP-LC retention time of 772 s.

Compound `O=C(NCCc1cccs1)C1CCN(c2cnn(Cc3ccccc3)c(=O)c2)CC1` had an RP-LC retention time of 765 s.

On to `CCc1ccc(NC(=O)Cn2cnc3onc(C)c3c2=O)cc1`, for which the RP-LC retention time turned out to be 843 s.

The compound `CC(C)C(=O)NCCc1csc(C2CCN(C(=O)NC(C)(C)C)CC2)n1` registered an RP-LC retention time of 681 s.

The compound `O=C(Cc1csc(SCC(=O)c2ccccc2)n1)Nc1cccc2nsnc12` showed an RP-LC retention time of 981 s.

In turn, `Cn1c(=O)n(CC(N)=O)c(=O)c2c1nc1n2CCCN1C1CCCCC1` yielded an RP-LC retention time of 657 s.

Consider `N#CC1(C(=O)NCCOc2ccc(F)cc2)CC1`, for which the RP-LC retention time turned out to be 728 s.
